Experimental data taken from US7994320B2, “Narcistatin prodrugs” (priority 2002, dated 2011).

How the values were obtained:
NCI-H460 = assay: Human cancer cell line growth inhibition, lung NCI-H460; assay type: cell-based
Description: (§1) Narciclasine cyclic phosphate prodrugs 3a-o were evaluated against a minipanel of human cancer cell lines and the murine P388 lymphocytic leukemia. The GI50 0.1-0.02 μg/ml strong activity range parallels that already reported for the parent, narciclasine (1). (Pettit, G. R.; Melody, N.; Herald, D. L. J. Org. Chem. 2001, 66, 2583-2587.)

SF 268 = assay: Human cancer cell line growth inhibition, CNS SF 268; assay type: cell-based
Description: as §1

MCF-7 = assay: Human cancer cell line growth inhibition, breast MCF-7; assay type: cell-based
Description: as §1

BXPC-3 = assay: Human cancer cell line growth inhibition, pancreas BXPC-3; assay type: cell-based
Description: as §1

KM20L2 = assay: Human cancer cell line growth inhibition, colon KM20L2; assay type: cell-based
Description: as §1

DU-145 = assay: Human cancer cell line growth inhibition, prostate DU-145; assay type: cell-based
Description: as §1

M5076 sarcoma = conditions: U.S. National Cancer Institute research; cited from earlier work
Solubility in water = conditions: solvent not stated
[1] = system: Erlich asciter cancer cells; conditions: cited from earlier work
[2] = system: P388 lymphocytic leukemia; conditions: U.S. National Cancer Institute research; cited from earlier work

Compound | GI50 Lung-NSC NCI-H460 (NCI-H460) [µg/mL] | GI50 CNS SF 268 (SF 268) [µg/mL] | GI50 Breast MCF-7 (MCF-7) [µg/mL] | GI50 Pancreas-a BXPC-3 (BXPC-3) [µg/mL] | GI50 Colon KM20L2 (KM20L2) [µg/mL] | GI50 Prostate DU-145 (DU-145) [µg/mL] | activity against in vivo growth of M5076 sarcoma (M5076 sarcoma) | solubility (Solubility in water) | inhibition of protein synthesis [1] | activity against in vivo growth of P388 lymphocytic leukemia [2]
O=C1N[C@@H]2C(=C[C@H](O)[C@H]3OP(=O)(O)O[C@H]32)c2cc3c(c(O)c21)OCO3.c1ccncc1 [Compound 3a, Pyridinium Narcistatin] | 0.27 | 0.15 | 0.27 | 0.22 | 0.34 | 0.17 | – | – | – | –
O=C1NC2C(=CC(O)C3OP(=O)([O-])OC23)c2cc3c(c(O)c21)OCO3.O=C1NC2C(=CC(O)C3OP(=O)([O-])OC23)c2cc3c(c(O)c21)OCO3.[Mn+2] (stereo not shown) [Compound 3j, Manganese Narcistatin] | 0.15 | 0.04 | 0.07 | 0.049 | 0.13 | 0.034 | – | – | – | –
C=C[C@@H]1CN2CC[C@@H]1C[C@H]2[C@@H](O)c1ccnc2ccc(OC)cc12.O=C1N[C@@H]2C(=C[C@H](O)[C@H]3OP(=O)(O)O[C@H]32)c2cc3c(c(O)c21)OCO3 [Compound 3k, Quinidinium Narcistatin] | 0.77 | 0.25 | 0.5 | 0.31 | 0.58 | 0.22 | – | – | – | –
C=C[C@@H]1CN2CC[C@@H]1C[C@@H]2[C@H](O)c1ccnc2ccc(OC)cc12.O=C1N[C@@H]2C(=C[C@H](O)[C@H]3OP(=O)(O)O[C@H]32)c2cc3c(c(O)c21)OCO3 [Compound 3l, Quininium Narcistatin] | 0.17 | 0.045 | 0.12 | 0.051 | 0.12 | 0.013 | – | – | – | –
C1COCCN1.O=C1N[C@@H]2C(=C[C@H](O)[C@H]3OP(=O)(O)O[C@H]32)c2cc3c(c(O)c21)OCO3 [Compound 3n, Morpholinium Narcistatin] | >1 | 0.24 | 0.48 | 0.25 | 0.54 | 0.14 | – | – | – | –
O=C1N[C@@H]2C(=C[C@H](O)[C@@H](O)[C@H]2O)c2cc3c(c(O)c21)OCO3 [narciclasine (1), narciclasine] | – | – | – | – | – | – | active | sparingly soluble | inhibit protein synthesis | active
Calcium Narcistatin [Compound 3h] | 0.12 | 0.031 | 0.059 | 0.045 | 0.059 | 0.0093 | – | – | – | –
Cesium Narcistatin [Compound 3f] | >1 | 0.33 | 0.62 | 0.41 | 0.66 | 0.13 | – | – | – | –
Imidazolium Narcistatin [Compound 3m] | >1 | 0.38 | 0.9 | 0.45 | >1 | 0.44 | – | – | – | –
Lithium Narcistatin [Compound 3c] | 0.3 | 0.17 | 0.31 | 0.25 | 0.26 | 0.13 | – | – | – | –
Magnesium Narcistatin [Compound 3g] | 0.29 | 0.14 | 0.25 | 0.19 | 0.31 | 0.1 | – | – | – | –
Narcistatin [Compound 3b] | 0.47 | 0.22 | 0.35 | 0.33 | 0.53 | 0.16 | – | – | – | –
Piperazinium Narcistatin [Compound 3o] | 0.24 | 0.099 | 0.17 | 0.1 | 0.22 | 0.032 | – | – | – | –
Potassium Narcistatin [Compound 3e] | 0.67 | 0.19 | 0.4 | 0.36 | 0.56 | 0.26 | – | – | – | –
Sodium Narcistatin [Compound 3d] | >1 | 0.23 | 0.56 | 0.32 | 0.45 | 0.12 | – | – | – | –
Zinc Narcistatin [Compound 3i] | 0.21 | 0.053 | 0.14 | 0.069 | 0.16 | 0.016 | – | – | – | –
